19 compounds from US9126941B2, “Treatment of hyperproliferative disorders with diarylhydantoin compounds” (The Regents of the University of California, priority 2005, dated 2015) can be followed below.

Each structure is given as a SMILES string. Where two headings read alike, the source gives them in different places. Bounds are passed on as bounds.

What all share (experiment): cell-based
The target in experiment [1] is T1, AR (Homo sapiens, UniProt P10275). The format is cell-based. The following applies: for IC50 (nM) Reporter / Inhibitory activity on AR in reporter system: LNCaP-AR; for IC50 (nM) Reporter: 100 pM R1881, two days, No = did not inhibit AR response reporter; for Inhibitory activity on AR in reporter system: hormone refractory. On the procedure: The compounds were subjected to tests using an artificial AR response reporter system in a hormone refractory prostate cancer cell line. […] After two days of incubation, reporter activities were assayed.

Experiment [2] concerns the target T1, AR. The class given is cell-based. The following applies: for Rank order, most active to least active, relative PSA level (FIG. 4): 500 nM; for Decrease in PSA level of LNCaP-AR cells, comparison (FIG. 4): at concentrations of 1000 nM; for PSA levels of LN-AR cells (FIG. 21): doses of 100, 200, 500 and 1000 nM. On the procedure:
It is well established that PSA levels are indicators of AR activities in prostate cancer. […] The LNCaP-AR cells are a line of lymph node carcinoma of prostate cells transduced with a plasmid that makes express androgen receptors. […] After four days incubation, secreted PSA levels were assayed using PSA ELISA kits (American Qualex, San Clemente, Calif.)

The target of experiment [3] is T1, AR. As to conditions: for Agonistic activity on AR, reporter: LN-AR, absence of R1881; for fold induction at 0.1 µM: read-out: Fold induction of AR response reporter, 0.1 μM; for fold induction at 1 µM: read-out: Fold induction of AR response reporter, 1 μM; for fold induction at 10 µM: read-out: Fold induction of AR response reporter, 10 μM. From the text:
Table 2 lists the agonistic activities of different compounds.

Experiment [4] concerns the target T1, AR. The format is cell-based. As to conditions: for Agonistic activity, secreted PSA: AR over expressed LNCaP, absence of R1881; for fold induction at 0.1 µM / fold induction at 1 µM / fold induction at 10 µM: LNCaP; for fold induction at 0.1 µM: read-out: Fold induction of endogenous PSA, 0.1 μM; for fold induction at 1 µM: read-out: Fold induction of endogenous PSA, 1 μM; for fold induction at 10 µM: read-out: Fold induction of endogenous PSA, 10 μM.

T1 sequence (P10275 whole entry, looked up): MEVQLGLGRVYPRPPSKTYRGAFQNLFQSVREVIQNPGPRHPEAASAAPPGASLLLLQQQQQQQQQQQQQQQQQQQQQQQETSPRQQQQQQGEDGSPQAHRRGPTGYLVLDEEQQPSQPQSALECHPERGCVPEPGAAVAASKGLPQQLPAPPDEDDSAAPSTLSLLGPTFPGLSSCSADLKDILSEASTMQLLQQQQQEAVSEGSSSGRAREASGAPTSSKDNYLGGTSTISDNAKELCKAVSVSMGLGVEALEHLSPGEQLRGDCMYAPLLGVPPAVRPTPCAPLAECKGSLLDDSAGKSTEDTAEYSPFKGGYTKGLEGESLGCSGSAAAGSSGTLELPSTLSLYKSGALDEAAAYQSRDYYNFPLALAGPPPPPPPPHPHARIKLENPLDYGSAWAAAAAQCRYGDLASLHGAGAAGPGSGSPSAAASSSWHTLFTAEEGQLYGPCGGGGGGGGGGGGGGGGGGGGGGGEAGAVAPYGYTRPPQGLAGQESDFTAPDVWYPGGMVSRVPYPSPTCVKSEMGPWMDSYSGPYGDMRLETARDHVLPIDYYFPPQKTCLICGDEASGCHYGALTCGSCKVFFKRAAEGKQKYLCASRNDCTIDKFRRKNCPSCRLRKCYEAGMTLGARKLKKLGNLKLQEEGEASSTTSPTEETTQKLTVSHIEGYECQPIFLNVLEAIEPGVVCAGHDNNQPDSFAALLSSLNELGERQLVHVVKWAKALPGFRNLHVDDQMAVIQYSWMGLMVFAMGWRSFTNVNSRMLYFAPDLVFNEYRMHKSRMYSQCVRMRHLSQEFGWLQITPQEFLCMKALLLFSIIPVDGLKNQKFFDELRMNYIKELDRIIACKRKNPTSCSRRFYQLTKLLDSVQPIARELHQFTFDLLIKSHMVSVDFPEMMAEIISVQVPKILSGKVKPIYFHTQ

As usually defined, the IC50 is the concentration that gives 50% inhibition. A higher IC50 goes with weaker potency. On to `CC1(C)C(=S)N(c2ccc(C#N)c(C(F)(F)F)c2)C(=S)N1c1ccc(O)cc1` [RD59, 4-[3-(4-hydroxyphenyl)-4,4-dimethyl-2,5-dithioxoazolidin-1-yl]-2-trifluoromethylbenzonitrile], for which the IC50 in experiment [1] turned out to be 278 nM; in experiment [2] it was 287 nM.
On to `CC1(C)C(=O)N(c2ccc(C#N)c(C(F)(F)F)c2)C(=S)N1c1ccccc1C(=O)O` [RD65, 2-[3-(4-cyano-3-trifluoromethylphenyl)-5,5-dimethyl-4-oxo-2-thioxoimidazolidin-1-yl]benzoic acid], for which the IC50 in experiment [1] was 523 nM; in experiment [2] it was above 500 nM.
Consider `CC1(C)C(=O)N(c2ccc(C#N)c(C(F)(F)F)c2)C(=S)N1c1ccc(C(F)(F)F)cc1` [RD66, 4-(4,4-dimethyl-5-oxo-2-thioxo-3-(4-trifluoromethylphenyl)imidazolidin-1-yl)-2-trifluoromethylbenzonitrile], for which the IC50 in experiment [1] was found to be 143 nM; in experiment [2], 144 nM.
Take `Cc1ccc(N2C(=S)N(c3ccc(C#N)c(C(F)(F)F)c3)C(=O)C2(CCl)CCl)cc1` [RD67, 4-(4,4-bischloromethyl-5-oxo-2-thioxo-3-(4-methylphenyl)imidazolidin-1-yl)-2-trifluoromethylbenzonitrile]: the IC50 in experiment [1] was 521 nM; in experiment [2], above 500 nM.
Consider `Cc1ccc(N2C(=S)N(c3ccc(C#N)c(C(F)(F)F)c3)C(=O)C2(C)CF)cc1` (stereo not shown) [RD68, 4-(4-fluoromethyl-4-methyl-5-oxo-2-thioxo-3-(4-methylphenyl)imidazolidin-1-yl)-2-trifluoromethylbenzonitrile], for which the half-maximal inhibitory concentration (IC50) was found to be 126 nM in experiment [1] and 129 nM in experiment [2].
Regarding `CN1C(=O)N(c2ccc(C#N)c(C(F)(F)F)c2)C(=O)C12CCCC2` [RD76, 4-(1-methyl-2,4-dioxo-1,3-diaza-spiro[4.4]non-3-yl)-2-trifluoromethylbenzonitrile], in experiment [1], the “IC50 (nM) Reporter” value was “No” and the “Inhibitory activity on AR in reporter system” value was “no inhibitory activities”. Further, the “IC50 (nM) PSA” value in experiment [2] was “No”. Further, in experiment [3], the “Agonistic activity on AR, reporter” value is listed as “strongly activated AR”; the fold induction at 0.1 µM turned out to be 12; the fold induction at 1 µM came to 19.8; the fold induction at 10 µM stood at 39.
Regarding `N#Cc1ccc(N2C(=O)C3(CCCC3)NC2=S)cc1C(F)(F)F` [RD77, 4-(4-oxo-2-thioxo-1,3-diazaspiro[4.4]non-3-yl)-2-trifluoromethylbenzonitrile], in experiment [1], the “IC50 (nM) Reporter” value is recorded as “No” and the “Inhibitory activity on AR in reporter system” value was “no inhibitory activities”. In experiment [2], the “IC50 (nM) PSA” value was “No”. In experiment [3], the “Agonistic activity on AR, reporter” value is given as “strongly activated AR”; the fold induction at 0.1 µM turned out to be 14.9; the fold induction at 1 µM came to 22.5; the fold induction at 10 µM was 37.1.
Consider `CCNC(=S)N=C1N(c2ccc(C#N)c(C(F)(F)F)c2)C(=S)N(c2ccc(C)cc2)C1(C)C` [RD91, 1-[3-(4-cyano-3-trifluoromethyl-phenyl)-5,5-dimethyl-2-thioxo-1-p-tolyl-imidazolidin-4-ylidene]-3-ethyl-thiourea], for which, in experiment [3], the “Agonistic activity on AR, reporter” value is given as “no agonistic activity”; the fold induction at 0.1 µM was found to be 1.3; the fold induction at 1 µM is 1.18; the fold induction at 10 µM was 1.28. In experiment [4], the “Agonistic activity, secreted PSA” value is “no agonistic activities”; the fold induction at 0.1 µM was determined as 1.06; the fold induction at 1 µM was determined as 1.3; the fold induction at 10 µM worked out at 0.85.
On to `Cc1ccc(N2C(=S)N(c3ccc(C#N)c(C(F)(F)F)c3)C(=NC(=S)Nc3ccccc3)C23CCC3)cc1` [RD92, 1-[7-(4-cyano-3-trifluoromethyl-phenyl)-6-thioxo-5-p-tolyl-5,7-diaza-spiro[3.4]oct-8-ylidine]-3-phenyl-thiourea], for which, in experiment [3], the “Agonistic activity on AR, reporter” value is reported as “no agonistic activity”; the fold induction at 0.1 µM is 1.19; the fold induction at 1 µM came to 1.41; the fold induction at 10 µM was determined as 1.17. For the same compound, in experiment [4], the “Agonistic activity, secreted PSA” value is on record as “no agonistic activities”; the fold induction at 0.1 µM turned out to be 1.31; the fold induction at 1 µM is 1.05; the fold induction at 10 µM was 0.9.
The compound `N#Cc1ccc(N2C(=O)C3(CCC3)N(c3ccc(/C=C/CO)cc3)C2=S)cc1C(F)(F)F` [RD120, 4-{5-[4-(3-hydroxypropenyl)-phenyl]-8-oxo-6-thioxo-5,7-diazaspiro[3.4]oct-7-yl}-2-trifluoromethylbenzonitrile] had a half-inhibitory concentration (IC50) in experiment [2] of 114 nM.
The compound `N#Cc1ccc(N2C(=O)C3(CCC3)N(c3ccc(CCCC(N)=O)cc3)C2=S)cc1C(F)(F)F` [RD130, 4-{4-[7-(4-Cyano-3-trifluoromethylphenyl)-8-oxo-6-thioxo-5,7-diaza-spiro[3.4]oct-5-yl]-phenyl}-butyramide] came in with a 50% inhibitory concentration (IC50) in experiment [1] of 112 nM. Further, the “PSA level, LN/AR cell line, comparison” value in experiment [2] (for a given dose / concentration) is “less than the PSA level upon exposure to RD128 and RD129”.
For the compound `N#Cc1ccc(N2C(=O)C3(CCC3)N(c3ccc(CCC(N)=O)cc3)C2=S)cc1C(F)(F)F` [RD133, 3-{4-[7-(4-cyano-3-trifluoromethylphenyl)-8-oxo-6-thioxo-5,7-diaza-spiro[3.4]oct-5-yl]-phenyl}-propionamide], inhibition in experiment [1] was half-maximal at 224 nM (IC50). Besides, in experiment [2], the “Rank order, most active to least active, relative PSA level (FIG. 4)” value (from here on “Rank order … relative PSA level (FIG. 4)”) is “RD138>RD131>RD37>RD133>RD134>RD137>RD138>RD135>bicalutamide”; the “Decrease in PSA level of LNCaP-AR cells, comparison (FIG. 4)” value (shortened to “Decrease in PSA level of LNCaP-AR cells”) is “greater decrease in PSA level of LNCaP-AR cells than RD135 and RD137”.
For the compound `CNC(=O)CCc1ccc(N2C(=S)N(c3ccc(C#N)c(C(F)(F)F)c3)C(=O)C23CCC3)cc1` [RD134, 3-{4-[7-(4-Cyano-3-trifluoromethylphenyl)-8-oxo-6-thioxo-5,7-diaza-spiro[3.4]oct-5-yl]-phenyl}-N-methyl-propionamide], in experiment [1], inhibition was half-maximal at 234 nM (IC50). Moreover, in experiment [2], the “Rank order … relative PSA level (FIG. 4)” value is “RD138>RD131>RD37>RD133>RD134>RD137>RD138>RD135>bicalutamide”; the “Decrease in PSA level of LNCaP-AR cells” value is “greater decrease in PSA level of LNCaP-AR cells than RD135 and RD137”.
Take `N#Cc1ccc(N2C(=O)C3(CCC3)N(c3ccc(CCC(=O)NCCO)cc3)C2=S)cc1C(F)(F)F` [RD135, 3-{4-[7-(4-cyano-3-trifluoromethylphenyl)-8-oxo-6-thioxo-5,7-diaza-spiro[3.4]oct-5-yl]-phenyl}-N-(2-hydroxyethyl)-propionamide]: in experiment [1], the IC50 was 732 nM. Also, in experiment [2], the “Rank order … relative PSA level (FIG. 4)” value is reported as “RD138>RD131>RD37>RD133>RD134>RD137>RD138>RD135>bicalutamide” and the “Decrease in PSA level of LNCaP-AR cells” value is given as “greater decrease in PSA level than bicalutamide”.
Turning to `N#Cc1ccc(N2C(=O)C3(CCC3)N(c3ccc(N4CCNCC4)cc3)C2=S)cc1C(F)(F)F` [RD137, 4-[8-Oxo-5-(4-piperazin-1-yl-phenyl)-6-thioxo-5,7-diazaspiro[3,4]oct-7-yl]-2-trifluoromethylbenzonitrile], the IC50 in experiment [1] was found to be 718 nM. In experiment [2], the “Rank order … relative PSA level (FIG. 4)” value is recorded as “RD138>RD131>RD37>RD133>RD134>RD137>RD138>RD135>bicalutamide” and the “Decrease in PSA level of LNCaP-AR cells” value was “greater decrease in PSA level than bicalutamide”.
Consider `CS(=O)(=O)N1CCN(c2ccc(N3C(=S)N(c4ccc(C#N)c(C(F)(F)F)c4)C(=O)C34CCC4)cc2)CC1` [RD138, 4-{5-[4-(4-methanesulfonylpiperazin-1-yl)-phenyl]-8-oxo-6-thioxo-5,7-diazaspiro[3.4]oct-7-yl}-2-trifluoromethylbenzonitrile], for which, in experiment [1], inhibition was half-maximal at 138 nM (IC50). In experiment [2], the “Rank order … relative PSA level (FIG. 4)” value is reported as “RD138>RD131>RD37>RD133>RD134>RD137>RD138>RD135>bicalutamide”; the “Decrease in PSA level of LNCaP-AR cells” value was “greater decrease in PSA level of LNCaP-AR cells than RD135 and RD137”.
In the case of `CNC(=O)c1ccc(N2C(=S)N(c3ccc(C#N)c(C(F)(F)F)c3)C(=O)C23CCCC3)cc1F` [RD162″, 4-(3-(4-Cyano-3-(trifluoromethyl)phenyl)-4-oxo-2-thioxo-1,3-diazaspiro[4.4]nonan-1-yl)-2-fluoro-N-methylbenzamide], in experiment [2], the “PSA levels of LN-AR cells (FIG. 21)” value is given as “decreased”.
Consider `CN(C)C(=O)CCCc1ccc(N2C(=S)N(c3ccc(C#N)c(C(F)(F)F)c3)C(=O)C23CCC3)cc1` [RD169, 4-(4-(7-(4-Cyano-3-(trifluoromethyl)phenyl)-8-oxo-6-thioxo-5,7-diazaspiro[3.4]octan-5-yl)phenyl)-N,N-dimethylbutanamide], for which the “PSA levels of LN-AR cells (FIG. 21)” value in experiment [2] is “decreased”.
As for `N#CCCCc1ccc(N2C(=S)N(c3ccc(C#N)c(C(F)(F)F)c3)C(=O)C23CCC3)cc1` [RD170, 4-(5-(4-(3-Cyanopropyl)phenyl)-8-oxo-6-thioxo-5,7-diazaspiro[3.4]octan-7-yl)-2-(trifluoromethyl)benzonitrile], in experiment [2], the “PSA levels of LN-AR cells (FIG. 21)” value was “decreased”.
